The assay has as its target neuronal NOS (Homo sapiens, UniProt P29475). The experiment in a line: Inhibition of NO synthase activity by conversion of [3H]arginine to [3H]citrulline (crude enzyme lysate). The assay is classed as biochemical.

Like-named read-outs stand apart in the source and are kept apart here.

Chain of neuronal NOS (P29475 whole entry): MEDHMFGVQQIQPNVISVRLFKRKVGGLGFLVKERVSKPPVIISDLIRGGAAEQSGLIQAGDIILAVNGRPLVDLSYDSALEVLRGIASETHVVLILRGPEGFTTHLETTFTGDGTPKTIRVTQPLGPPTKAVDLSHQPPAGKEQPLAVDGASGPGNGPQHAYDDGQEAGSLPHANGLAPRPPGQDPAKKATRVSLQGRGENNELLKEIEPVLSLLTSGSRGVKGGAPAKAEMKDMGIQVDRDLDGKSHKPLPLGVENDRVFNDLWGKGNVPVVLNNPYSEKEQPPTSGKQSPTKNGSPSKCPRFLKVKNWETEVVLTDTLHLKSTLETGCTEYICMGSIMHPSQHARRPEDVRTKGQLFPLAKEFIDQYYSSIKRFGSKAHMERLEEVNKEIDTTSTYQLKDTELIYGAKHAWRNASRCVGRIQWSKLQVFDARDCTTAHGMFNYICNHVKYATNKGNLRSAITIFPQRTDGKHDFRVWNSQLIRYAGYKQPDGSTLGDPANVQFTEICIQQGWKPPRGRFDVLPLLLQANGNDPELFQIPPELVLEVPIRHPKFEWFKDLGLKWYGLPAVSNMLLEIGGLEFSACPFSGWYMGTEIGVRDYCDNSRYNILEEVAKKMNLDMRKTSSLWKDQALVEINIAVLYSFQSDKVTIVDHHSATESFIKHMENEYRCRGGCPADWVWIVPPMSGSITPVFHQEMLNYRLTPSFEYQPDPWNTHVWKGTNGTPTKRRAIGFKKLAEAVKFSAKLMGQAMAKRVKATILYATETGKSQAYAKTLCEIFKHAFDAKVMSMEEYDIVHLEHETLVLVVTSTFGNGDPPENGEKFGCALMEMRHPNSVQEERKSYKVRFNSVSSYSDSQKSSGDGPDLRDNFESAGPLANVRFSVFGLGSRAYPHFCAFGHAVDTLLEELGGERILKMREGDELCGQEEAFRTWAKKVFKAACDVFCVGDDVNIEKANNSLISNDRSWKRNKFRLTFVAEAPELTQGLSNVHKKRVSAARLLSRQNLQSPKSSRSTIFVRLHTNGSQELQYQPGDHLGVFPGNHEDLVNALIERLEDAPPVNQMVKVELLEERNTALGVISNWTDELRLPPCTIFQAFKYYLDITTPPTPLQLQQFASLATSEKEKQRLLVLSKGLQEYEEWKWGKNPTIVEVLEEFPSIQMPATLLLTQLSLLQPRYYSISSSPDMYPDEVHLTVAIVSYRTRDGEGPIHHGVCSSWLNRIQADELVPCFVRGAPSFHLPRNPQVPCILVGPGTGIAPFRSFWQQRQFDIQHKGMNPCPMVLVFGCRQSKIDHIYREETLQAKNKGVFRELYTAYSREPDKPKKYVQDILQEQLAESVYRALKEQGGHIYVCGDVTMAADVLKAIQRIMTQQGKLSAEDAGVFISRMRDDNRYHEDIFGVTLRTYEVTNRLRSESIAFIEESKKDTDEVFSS
Experimental: The ability of the compounds of the present invention to inhibit neuronal NOS may be determined using the procedure described by Bredt and Snyder in Proc. Natl. Acad. Sci. U.S.A., 87, 682-685 (1990).
As indicated above, inhibition of NO synthase activity may be determined by conversion of [^3H]arginine to [^3H]citrulline as described by Bredt and Snyder in Proc. Natl. Acad. Sci. U.S.A., 87, 682-685 (1990), but with slight modification. Specifically, 10 uL of crude enzyme lysate and 10 uL of 350 nM [^3H]arginine are added to 100 uL of buffer containing 10 mM Hepes, 0.32 M sucrose, 0.75 mM NADPH, 0.1 mM EDTA, 0.63 mM CaCl2, 1 mM dithiothreitol, 30 nM calmodulin(CaM), 2 uM Flavin Adenin dinucleotie (FAD), 2 uM Flavin mononucleotide (FMN), 3 uM tetrahydrobiopterin (H4B) and trace bovine serum albumin in 96-well plate format. After incubation for 50 minutes at 30°C, assays are terminated by application to 75 uL BioRex-70 resin (H^+ form) and eluted with 90 uL of water. [^3H]citrulline may be quantified by liquid scintillation spectroscopy of the total flow-through.

For `CCc1cc(-c2cccc(N)n2)c(OC)cc1OC1CNC1` [Example 1, 6-[4-(3-azetidinoxy)-5-ethyl-2-methoxy-phenyl]-pyridin-2-ylamine], the IC50 (crude enzyme lysate, [3H]arginine to [3H]citrulline, 50 minutes at 30°C, read-out: IC50 for inhibition of neuronal NOS) amounted to 36 nM.
`CCc1cc(-c2cccc(N)n2)c(OC)cc1CNC` [Example 3, 6-[4-(N-methylaminomethyl)-5-ethyl-2-methoxy-phenyl]-pyridin-2-ylamine] gave an IC50 of 30 nM.

Broadly, the IC50 is the concentration at which inhibition is half-maximal.

The record behind these values is patent publication EP1434624B1, “2-AMINO-6-(2,4,5-SUBSTITUTED-PHENYL)-PYRIDINES FOR USE AS NITRIC OXIDE SYNTHASE INHIBITORS” (Pfizer Products Inc., priority 2001, dated 2003).
